Structures are written as SMILES.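 A five-concentration, 48-hour dose response in 96-well plates underlies each endpoint, interpolated linearly between surrounding concentrations. Abbreviation: GI50, concentration required for 50% inhibition of growth. TGI marks complete inhibition of growth.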

Our source for the GI50 and TGI values is PubChem BioAssay (NCI).

Among the test systems are 786-0 renal; MDA-MB-435; NCI-H226 lung; NCI-H23 lung; OVCAR-5 ovarian; SR leukemia; T-47D breast; TK-10 renal.
Common to all, as to experiment: NCI tumour cell line growth inhibition, 48 h

In the case of `O=C(CCl)c1ccc([N+](=O)[O-])o1`, the GI50 with 786-0 renal is 3.32 µM; in the experiment with MDA-MB-435, 1.89 µM; in the experiment on NCI-H226 lung, 2.45 µM; in the experiment on NCI-H23 lung it was 4.94 µM; in the experiment with OVCAR-5 ovarian, 2.48 µM; in the experiment with SR leukemia it was 0.406 µM. For the same molecule, the GI50 was 1.89 µM in the experiment with T-47D breast and 1.79 µM in the experiment on TK-10 renal. For the same molecule, the TGI in the experiment with 786-0 renal came to 10.9 µM; in the experiment on MDA-MB-435 it was 4.22 µM; in the experiment on NCI-H226 lung, 7.05 µM; in the experiment on NCI-H23 lung, 26 µM; with OVCAR-5 ovarian it was 5.3 µM; with SR leukemia, 1.81 µM. Besides, the TGI worked out at 4.78 µM in the experiment with T-47D breast and 3.49 µM in the experiment on TK-10 renal.

Consider `N#CSc1ncnc2nc[nH]c12`, for which the GI50 with 786-0 renal was 3.53 µM; in the experiment with MDA-MB-435, 3.65 µM; in the experiment with NCI-H226 lung it was above 100 µM; in the experiment on NCI-H23 lung, 9.96 µM; with OVCAR-5 ovarian it was 17.2 µM; in the experiment with SR leukemia it was 4.02 µM. Moreover, the GI50 in the experiment with T-47D breast was 2.25 µM; with TK-10 renal, 4.17 µM. Moreover, the TGI was above 100 µM with 786-0 renal; above 100 µM in the experiment on MDA-MB-435; above 100 µM with NCI-H226 lung; above 100 µM in the experiment on NCI-H23 lung; above 100 µM in the experiment with OVCAR-5 ovarian; 32.2 µM in the experiment on SR leukemia. Besides, the values for the TGI with T-47D breast and with TK-10 renal were above 80 µM and above 100 µM, respectively.

For the molecule `O=C(CCN1CCCC1)Nc1ccc2c(NCc3ccc(F)cc3)c3ccccc3nc2c1`, the GI50 was 0.55 µM in the experiment on 786-0 renal; 0.692 µM with MDA-MB-435; 0.57 µM in the experiment with NCI-H226 lung; 0.413 µM with NCI-H23 lung; 0.48 µM in the experiment on OVCAR-5 ovarian; 0.349 µM with SR leukemia. Further, the GI50 in the experiment on T-47D breast was 0.768 µM; in the experiment with TK-10 renal, 1.04 µM. Also, the TGI worked out at 1.94 µM in the experiment with 786-0 renal; 1.97 µM in the experiment with MDA-MB-435; 2.63 µM in the experiment with NCI-H226 lung; 1.67 µM in the experiment on NCI-H23 lung; 2.01 µM with OVCAR-5 ovarian; 1.72 µM in the experiment with SR leukemia. In addition, the TGI is 3.22 µM in the experiment with T-47D breast and 2.93 µM with TK-10 renal.

Regarding `CN(C)CCNC(=O)c1cccn2c(=O)c3cc4ccccc4cc3nc12`, the GI50 is 0.11 µM with 786-0 renal; 0.181 µM in the experiment on MDA-MB-435; 0.145 µM with NCI-H226 lung; 0.165 µM with NCI-H23 lung; 0.217 µM in the experiment with OVCAR-5 ovarian; 0.0457 µM in the experiment on SR leukemia. Moreover, the GI50 is 0.417 µM with T-47D breast and 0.399 µM in the experiment with TK-10 renal. Moreover, the TGI in the experiment on 786-0 renal is 14.1 µM; in the experiment on MDA-MB-435 it was 1.19 µM; in the experiment on NCI-H226 lung it was 2.99 µM; in the experiment on NCI-H23 lung, 1.01 µM; in the experiment with OVCAR-5 ovarian, 13.7 µM; in the experiment with SR leukemia, above 100 µM. The TGI in the experiment with T-47D breast was determined as 19 µM; in the experiment on TK-10 renal, 9.8 µM.

With `CC(C)(O)c1ccc(N2CCN(c3nnc(Cc4ccccc4)c4ccccc34)CC2)nc1`, the GI50 was 14.6 µM with 786-0 renal; 10 µM in the experiment on MDA-MB-435; 5.76 µM in the experiment with NCI-H226 lung; 5.68 µM in the experiment on NCI-H23 lung; 17.2 µM in the experiment on OVCAR-5 ovarian; 18.6 µM in the experiment with SR leukemia. The GI50 in the experiment on T-47D breast was 2.71 µM; in the experiment on TK-10 renal, 13.4 µM. Moreover, the TGI was 45.7 µM in the experiment with 786-0 renal; 22.8 µM in the experiment with MDA-MB-435; 22.4 µM with NCI-H226 lung; 28.4 µM in the experiment with NCI-H23 lung; 38.9 µM in the experiment with OVCAR-5 ovarian; above 100 µM in the experiment with SR leukemia. The TGI was 14.6 µM in the experiment on T-47D breast and 38.1 µM in the experiment on TK-10 renal.

With `CCOC(=O)Cc1c[nH]c(=S)[nH]c1=O`, the GI50 in the experiment on 786-0 renal, in the experiment with MDA-MB-435, in the experiment on NCI-H226 lung, with NCI-H23 lung, in the experiment with OVCAR-5 ovarian and in the experiment with SR leukemia was above 100 µM in each case. For the same molecule, the GI50 in the experiment with T-47D breast and in the experiment with TK-10 renal was above 100 µM in each case. Further, the TGI in the experiment with 786-0 renal, in the experiment on MDA-MB-435, in the experiment with NCI-H226 lung, with NCI-H23 lung, in the experiment on OVCAR-5 ovarian and with SR leukemia was above 100 µM in each case. In addition, the TGI in the experiment with T-47D breast and in the experiment on TK-10 renal was above 100 µM each time.

Turning to `CC[C@H](Nc1nc(N)nc(C)c1C#N)c1nc2cccc(CN(C)c3ncc(C(=O)NO)cn3)c2c(=O)n1-c1ccccc1`, the GI50 with 786-0 renal was 1.53 µM; with MDA-MB-435, 0.617 µM; in the experiment on NCI-H226 lung, 1.18 µM; in the experiment on NCI-H23 lung it was 1.14 µM; with OVCAR-5 ovarian, 0.678 µM; in the experiment on SR leukemia, 0.396 µM. Further, the figures for the GI50 with T-47D breast and with TK-10 renal were 0.242 µM and 0.681 µM, respectively. In addition, the TGI in the experiment with 786-0 renal was 6.47 µM; in the experiment with MDA-MB-435, 2.26 µM; with NCI-H226 lung, 7.07 µM; in the experiment on NCI-H23 lung, 5.32 µM; with OVCAR-5 ovarian it was 3.05 µM; in the experiment on SR leukemia it was above 50 µM. The same molecule registered a TGI with TK-10 renal of 3.85 µM.

Consider `CCN(CC)CCOc1ccc(C(=C(C)c2ccc(Cl)cc2)c2ccc(OCCN(CC)CC)cc2)cc1`, for which the GI50 in the experiment on 786-0 renal was 0.597 µM; with MDA-MB-435, 0.558 µM; in the experiment with NCI-H226 lung, 2.54 µM; in the experiment on NCI-H23 lung, 1.88 µM; in the experiment on OVCAR-5 ovarian it was 0.664 µM; with SR leukemia, 0.484 µM. The GI50 with T-47D breast was 0.565 µM; in the experiment on TK-10 renal, 0.698 µM. Moreover, the TGI worked out at 1.12 µM with 786-0 renal; 1.02 µM in the experiment on MDA-MB-435; 7.32 µM in the experiment with NCI-H226 lung; 6.41 µM with NCI-H23 lung; 1.57 µM with OVCAR-5 ovarian; 1.25 µM in the experiment with SR leukemia. Also, the TGI in the experiment with T-47D breast was found to be 1.25 µM; in the experiment with TK-10 renal, 1.67 µM.

Take `CN(C)CCCNC(=O)c1cc(NC(=O)CCNS(=O)(=O)c2ccc3c(c2)C(=O)c2ccccc2C3=O)cn1C`: the GI50 in the experiment with 786-0 renal, in the experiment on MDA-MB-435, in the experiment on NCI-H226 lung, in the experiment on NCI-H23 lung, in the experiment on OVCAR-5 ovarian and in the experiment on SR leukemia was above 100 µM throughout. In addition, the GI50 in the experiment with T-47D breast and in the experiment on TK-10 renal was above 100 µM throughout. Also, the TGI in the experiment with 786-0 renal, in the experiment with MDA-MB-435, in the experiment on NCI-H226 lung, in the experiment with NCI-H23 lung, in the experiment with OVCAR-5 ovarian and with SR leukemia was above 100 µM each time. For the same molecule, the TGI with T-47D breast and with TK-10 renal was above 100 µM each time.
